Source: US20090054491A1, “Use” (AstraZeneca AB, priority 2005, published 2009)

Test system: Female C57Bl6 mice
Experiment: Pharmacodynamic effect in mouse (intake of bland and palatable paste after fasting, body weight change)
Format: in vivo
Method: Female C57Bl6 mice (19-21 g) are singly housed for 7-days with ad libitum access to a “bland-paste” made from normal laboratory chow (R-3 Lactanin, Vadstena, Sweden) or to a “palatable-paste” of similar consistency containing oatmeal, butter, sugar, cocoa powder, cocoa butter and peanut butter. The day before the experimental day, food is removed for 12 hours. O the experiment day, animals are weighed and compound or vehicle is administered. Animals are returned to their home cages and given access to weighed amounts of both bland and palatable pastes. This food is then re-weighed 2, and optionally 4 and 6 hours later, and consumption of each food type calculated by the difference from initial food weight. Animals are further weighed at 24 hours after administration, and change in body weight over the treatment period is calculated.

COCc1cc(C#N)cc(-c2nc(-c3ccc(F)cn3)no2)c1 [3-[3-(5-fluoropyridin-2-yl)-1,2,4-oxadiazol-5-yl]-5-(methoxymethyl)benzonitrile]
body weight recovery after fasting (compared to vehicle treated animals, FIG. 2): slower body weight recovery
effect on normal laboratory chow (intake) (measured 2 hours after treatment, bland paste, fasted mice, FIG. 1): no effect
intake of sweets (measured 2 hours after treatment, palatable paste, fasted mice, FIG. 1): decreased intake of sweets measured 2 hours after treatment in a dose-related manner
